Results: patent US20230391772A1, “METHODS AND COMPOSITIONS FOR TARGETED PROTEIN DEGRADATION” (Ranok Therapeutics (Hangzhou) Co. Ltd., priority 2020, published 2023)
pEC50, pIC50: −log10 of the molar value.

Legend:
HSP90a protein = molecular target: T1, HSP90a protein (Homo sapiens, UniProt P07900); test: HSP90α-binding fluorescent polarization (FP) assay, BODIPY-labeled RNK04010 probe; conditions: FP competition with RNK04010 (BODIPY-labeled), 5 nM, 300 min at 25° C.
T1 construct: purchased BPS Bioscience 50298
Outline: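 Displacement of a 5 nM fluorescent HSP90 ligand from the N-terminal HSP90a domain by FP. Incubation ran at 25° C: 120 min for the FITC-geldanamycin tracer, 300 min for the BODIPY-conjugated triazolone RNK04010.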

KRAS(G12C) = KRAS(G12C) (Homo sapiens, UniProt P01116, G12C); test: KRAS(G12C)/SOS1 homogeneous time-resolved fluorescence (HTRF) assay; set-up: purchased Cisbio 63ADK000CB16PEG; conditions: absence of GTP, 4° C. for 3 hr, read-out: KRAS (G12C) binding
Protocol: KRAS(G12C)/SOS1 Homogeneous Time-Resolved Fluorescence (HTRF) Assay
Binding of test compounds to KRAS(G12C) protein, which in turn blocks KRAS(G12C) interaction with the SOS1 protein, was measured in the absences of GTP by homogeneous time-resolved fluorescence (HTRF) using the KRAS-G12C/SOS1 Binding Assay Kit (Cisbio, #63ADK000CB16PEG), following the manufacturer's instructions, except as noted. 3-fold serial dilutions of each test compound were prepared ranging from […] to 1.02 nM. The test compound was mixed and incubated with reaction components, incubated in a sealed plate at 4° C. for 3 hr and fluorescence was measured using a PerkinElmer Envision plate reader.

[1] = system: MIA PaCa-2 human pancreatic carcinoma; test: MIA PaCa-2 CCK-8 proliferation assay; assay type: cell-based; conditions: Homo sapiens, MIA PaCa-2, 72 h, MIA PaCa-2 cells
Outline: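 MIA PaCa-2 (2 copies KRAS(G12C)), NCI-H358 and NCI-H23 (1 copy KRAS(G12C) each) were exposed to compound in 3-fold serial dilutions from 20 μM to 1.02 nM. Viability was read as CCK-8 absorbance, and % inhibition was computed against DMSO-treated cells, with cell-free DMSO medium as blank.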

Chain of KRAS(G12C) (P01116 1-188 isoform P01116-2 G12C): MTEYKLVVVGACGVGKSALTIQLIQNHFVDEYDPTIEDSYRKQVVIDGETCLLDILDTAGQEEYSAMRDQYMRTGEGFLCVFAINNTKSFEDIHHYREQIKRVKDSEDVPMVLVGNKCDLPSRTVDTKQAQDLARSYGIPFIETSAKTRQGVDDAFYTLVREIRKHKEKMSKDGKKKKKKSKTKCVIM

pIC50 (HSP90a protein)	pIC50 (KRAS(G12C))	pEC50 [1]	SMILES
> 7.00	6.00 to 7.00	< 6.00	C=CC(=O)N1CCN(c2nc(OC[C@@H]3CN(C(=O)C4CCN(Cc5ccc(-n6c(O)nnc6-c6cc(C(C)C)c(O)cc6O)cc5)CC4)CCN3C)nc3c2CCN(c2cccc4cccc(Cl)c24)C3)C[C@@H]1CC#N [Compound 202, 2-((S)-1-acryloyl-4-(7-(8-chloronaphthalen-1-yl)-2-(((S)-4-(1-(4-(3-(2,4-dihydroxy-5-isopropylphenyl)-5-hydroxy-4H-1,2,4-triazol-4-yl)benzyl)piperidine-4-carbonyl)-1-methylpiperazin-2-yl)methoxy)-5,6,7,8-tetrahydropyrido[3,4-d]pyrimidin-4-yl)piperazin-2-yl)acetonitrile, trifluoroacetic acid]
> 7.00	> 7.00	> 7.00	C=CC(=O)N1CCN(c2nc(OC[C@@H]3CC[C@H](C(=O)N4CCN(C(=O)c5ccc(-n6c(C(=O)NCC(F)(F)F)nnc6-c6cc(C(C)C)c(O)cc6O)cc5)CC4)N3C)nc3c2CCN(c2cccc4cccc(Cl)c24)C3)C[C@@H]1CC#N [Compound 331, 4-(4-{4-[(2R,5S)-5-({[7-(8-chloronaphthalen-1-yl)-4-[(3S)-3-(cyanomethyl)-4-(prop-2-enoyl)piperazin-1-yl]-5H,6H,8H-pyrido[3,4-d]pyrimidin-2-yl]oxy}methyl)-1-methylpyrrolidine-2-carbonyl]piperazine-1-carbonyl}phenyl)-5-(2,4-dihydroxy-5-isopropylphenyl)-N-(2,2,2-trifluoroethyl)-1,2,4-triazole-3-carboxamide]
> 7.00	6.00 to 7.00	> 7.00	C=CC(=O)N1CCN(c2nc(OC[C@@H]3CC[C@H](C(=O)N4CCN(C(=O)C5CCN(Cc6ccc(-n7c(C(=O)NCC(F)(F)F)nnc7-c7cc(C(C)C)c(O)cc7O)cc6)CC5)CC4)N3C)nc3c2CCN(c2cccc4cccc(Cl)c24)C3)C[C@@H]1CC#N [Compound 304, 4-{4-[(4-{4-[(2R,5S)-5-({[7-(8-chloronaphthalen-1-yl)-4-[(3S)-3-(cyanomethyl)-4-(prop-2-enoyl)piperazin-1-yl]-5H,6H,8H-pyrido[3,4-d]pyrimidin-2-yl]oxy}methyl)-1-methylpyrrolidine-2-carbonyl]piperazine-1-carbonyl}piperidin-1-yl)methyl]p-henyl}-5-(2,4-dihydroxy-5-isopropylphenyl)-N-(2,2,2-trifluoroethyl)-1,2,4-triazole-3-carboxamide]
> 7.00	6.00 to 7.00	6.00 to 7.00	C=CC(=O)N1CCN(c2nc(OC[C@@H]3CC[C@H](C(=O)N4CCN(Cc5ccc(-n6c(O)nnc6-c6cc(C(C)C)c(O)cc6O)cc5)CC4)N3C)nc3c2CCN(c2cccc4cccc(Cl)c24)C3)C[C@@H]1CC#N [Compound 324, 2-[(2S)-4-[7-(8-chloronaphthalen-1-yl)-2-{[(2S,5R)-5-[4-({4-[3-(2,4-dihydroxy-5-isopropylphenyl)-5-hydroxy-1,2,4-triazol-4-yl]phenyl}methyl)piperazine-1-carbonyl]-1-methylpyrrolidin-2-yl]methoxy}-5H,6H,8H-pyrido[3,4-d]pyrimidin-4-yl]-1-(prop-2-enoyl)piperazin-2-yl]acetonitrile]
> 7.00	> 7.00	6.00 to 7.00	C=CC(=O)N1CCN(c2nc(OC[C@@H]3C[C@H](N4CCC5(CCN(C(=O)C6CCN(Cc7ccc(-n8c(O)nnc8-c8cc(C(C)C)c(O)cc8O)cc7)CC6)CC5)CC4)CN3C)nc3c2CCN(c2cccc4cccc(Cl)c24)C3)C[C@@H]1CC#N [Compound 318, 2-[(2S)-4-[7-(8-chloronaphthalen-1-yl)-2-{[(2S,4S)-4-{9-[1-({4-[3-(2,4-dihydroxy-5-isopropylphenyl)-5-hydroxy-1,2,4-triazol-4-yl]phenyl}methyl)piperidine-4-carbonyl]-3,9-diazaspiro[5.5]undecan-3-yl}-1-methylpyrrolidin-2-yl]methoxy}-5H,6H,8H-pyrido[3,4-d]pyrimidin-4-yl]-1-(prop-2-enoyl)piperazin-2-yl]acetonitrile]
> 7.00	< 6.00	< 6.00	C=CC(=O)N1CCN(c2nc(OCCN3CCN(C(=O)c4ccc(-n5c(O)nnc5-c5cc(C(C)C)c(O)cc5O)cc4)CC3)nc3c2CCN(c2cccc4cccc(Cl)c24)C3)C[C@@H]1CC#N [Compound 195, (S)-2-(1-acryloyl-4-(7-(8-chloronaphthalen-1-yl)-2-(2-(4-(4-(3-(2,4-dihydroxy-5-isopropylphenyl)-5-hydroxy-4H-1,2,4-triazol-4-yl)benzoyl)piperazin-1-yl)ethoxy)-5,6,7,8-tetrahydropyrido[3,4-d]pyrimidin-4-yl)piperazin-2-yl)acetonitrile, trifluoroacetic acid]
> 7.00	> 7.00	> 7.00	C=CC(=O)N1CCN(c2nc(OC[C@@H]3CC[C@H](CN4CCN(C(=O)C5CCN(Cc6ccc(-n7c(C(=O)NCC(F)(F)F)nnc7-c7cc(C(C)C)c(O)cc7O)cc6)CC5)CC4)N3C)nc3c2CCN(c2cccc4cccc(Cl)c24)C3)C[C@@H]1CC#N [Compound 310, 4-(4-{[4-(4-{[(2R,5S)-5-({[7-(8-chloronaphthalen-1-yl)-4-[(3S)-3-(cyanomethyl)-4-(prop-2-enoyl)piperazin-1-yl]-5H,6H,8H-pyrido[3,4-d]pyrimidin-2-yl]oxy}methyl)-1-methylpyrrolidin-2-yl]methyl}piperazine-1-carbonyl)piperidin-1-yl]methyl}phenyl)-5-(2,4-dihydroxy-5-isopropylphenyl)-N-(2,2,2-trifluoroethyl)-1,2,4-triazole-3-carboxamide]
> 7.00	6.00 to 7.00	6.00 to 7.00	C=CC(=O)N1CCN(c2nc(OC[C@@H]3C[C@@H](OCC(=O)N4CCC(CN5CCN(Cc6ccc(-n7c(O)nnc7-c7cc(C(C)C)c(O)cc7O)cc6)CC5)CC4)CN3C)nc3c2CCN(c2cccc4cccc(Cl)c24)C3)C[C@@H]1CC#N [Compound 301, 2-((S)-1-acryloyl-4-(7-(8-chloronaphthalen-1-yl)-2-(((2S,4R)-4-(2-(4-((4-(4-(3-(2,4-dihydroxy-5-isopropylphenyl)-5-hydroxy-4H-1,2,4-triazol-4-yl)benzyl)piperazin-1-yl)methyl)piperidin-1-yl)-2-oxoethoxy)-1-methylpyrrolidin-2-yl)methoxy)-5,6,7,8-tetrahydropyrido[3,4-d]pyrimidin-4-yl)piperazin-2-yl)acetonitrile]
> 7.00	6.00 to 7.00	6.00 to 7.00	C=CC(=O)N1CCN(c2nc(OC[C@@H]3C[C@@H](OCC(=O)N4CCC(Cc5ccc(-n6c(C(=O)NCC(F)(F)F)nnc6-c6cc(C(C)C)c(O)cc6O)cc5)CC4)CN3C)nc3c2CCN(c2cccc4cccc(Cl)c24)C3)C[C@@H]1CC#N [Compound 303, 4-(4-((1-(2-(((3R,5S)-5-(((4-((S)-4-acryloyl-3-(cyanomethyl)piperazin-1-yl)-7-(8-chloronaphthalen-1-yl)-5,6,7,8-tetrahydropyrido[3,4-d]pyrimidin-2-yl)oxy)methyl)-1-methylpyrrolidin-3-yl)oxy)acetyl)piperidin-4-yl)methyl)phenyl)-5-(2,4-dihydroxy-5-isopropylphenyl)-N-(2,2,2-trifluoroethyl)-4H-1,2,4-triazole-3-carboxamide]
> 7.00	6.00 to 7.00	6.00 to 7.00	C=CC(=O)N1CCN(c2nc(OC[C@@H]3C[C@H](C(=O)N4CCN(Cc5ccc(-n6c(C(=O)NCC(F)(F)C(F)(F)F)nnc6-c6cc(C(C)C)c(O)cc6O)cc5)CC4)CN3C)nc3c2CCN(c2cccc4cccc(Cl)c24)C3)C[C@@H]1CC#N [Compound 339, 4-[4-({4-[(3S,5S)-5-({[7-(8-chloronaphthalen-1-yl)-4-[(3S)-3-(cyanomethyl)-4-(pr-op-2-enoyl)piperazin-1-yl]-5H,6H,8H-pyrido[3,4-d]pyrimidin-2-yl]oxy}methyl)-1-methylpyrrolidine-3-carbonyl]piperazin-1-yl}methyl)phenyl]-5-(2,4-dihydroxy-5-isopropylphenyl)-N-(2,2,3,3,3-pentafluoropropyl)-1,2,4-triazole-3-carboxamide]
> 7.00	6.00 to 7.00	< 6.00	C=CC(=O)N1CCN(c2nc(OC[C@@H]3C[C@@H](NC(=O)c4ccc(-n5c(O)nnc5-c5cc(C(C)C)c(O)cc5O)cc4)CN3C)nc3c2CCN(c2cccc4cccc(Cl)c24)C3)C[C@@H]1CC#N [Compound 196, N-((3R,5S)-5-(((4-((S)-4-acryloyl-3-(cyanomethyl)piperazin-1-yl)-7-(8-chloronaphthalen-1-yl)-5,6,7,8-tetrahydropyrido[3,4-d]pyrimidin-2-yl)oxy)methyl)-1-methylpyrrolidin-3-yl)-4-(3-(2,4-dihydroxy-5-isopropylphenyl)-5-hydroxy-4H-1,2,4-triazol-4-yl)benzamide, trifluoroacetic acid]
